Experimental data taken from US9340577B2, “HLA binding motifs and peptides and their uses” (priority 1992, dated 2016).
No end group written: not given here.

Key:
Assay in all cases: biochemical
HLA-A1 (A*0101) = HLA-A1 (A*0101) (Homo sapiens, UniProt P04439, A114D/A174V/A182V/D101N/D185E/E176A/E190D/L180R/Q94H/R68K/S129P/T187R/V100A/V91M/W191G); assay type: binding
A*2902 = A*2902 (Homo sapiens, UniProt P04439, A270S/D101N/D185E/E176V/E277Q/E87Q/F33T/G231S/H175R/I121M/I218V/I322F/K168Q/L300P/L318F/M331R/P208A/P217A/Q86L/T323A/T345S/V100A/V358M); assay type: binding
A*3002 = A*3002 (Homo sapiens, UniProt P04439, D101N/D140H/D185E/E176R/F33S/G80R/H175R/K168Q/Q94H/R138E/R41S/V100E); assay type: binding
DR1 (DRB1*0101) = DR1 (DRB1*0101) (Homo sapiens, UniProt P01903+P01911, A100R/D57E/F55L/F60I/F76Y/I96L/L162R/M171V/P40L/Q125E/R42F/V115G/Y59C); assay type: binding
DR4w4 (DRB1*0401) = DR4w4 (DRB1*0401) (Homo sapiens, UniProt P01903+P01911, A100K/A169T/F76Y/I96L/K127E/L162R/M171V/N62H/P40V/Q125Y/R42H/S133A/S149N/S66Y/V115G/V209L/W38E); assay type: binding
DR7 (DRB1*0701) = DR7 (DRB1*0701) (Homo sapiens, UniProt P01903+P01911, A100R/A102G/A103Q/D57E/D86V/E43K/F76Y/K127E/L162R/M171V/P40G/Q125H/Q99D/R33Q/R42Y/R54Q/S133A/S66F/T210M/V115G/Y107V/Y59L/Y89S); assay type: binding
DRB1*0301 = DRB1*0301 (Homo sapiens, UniProt P01903+P01911, A100K/A102G/A103R/A169T/F55Y/I96L/K41T/L162R/M171V/P40S/Q125H/Q178H/Q39Y/R42S/S66N/T106N/T262R/W38E/Y61H); assay type: binding
DRB1*0405 = DRB1*0405 (Homo sapiens, UniProt P01903+P01911, A100R/A169T/D86S/F76Y/I96L/K127E/L162R/M171V/N62H/P40V/Q125Y/R42H/S133A/S149N/S66Y/V115G/V209L/W38E); assay type: binding
DRB1*0802 = DRB1*0802 (Homo sapiens, UniProt P01903+P01911, A100R/A103L/A169T/F76Y/H45Y/I96F/K41T/L162R/M171V/P40S/Q125H/Q178H/Q39Y/Q99D/R218S/R42G/S66Y/V115G/W38E); assay type: binding
DRB1*0901 = DRB1*0901 (Homo sapiens, UniProt P01903+P01911, A100R/A103E/D57H/D86V/F55Y/F60I/F76Y/I96F/K127E/L162R/M171V/P40D/Q125H/Q99R/R33Q/R42F/S133A/S66N/T210M/V115G/W38K/Y107V/Y59G/Y89S); assay type: binding
DRB1*1201 = DRB1*1201 (Homo sapiens, UniProt P01903+P01911, A100R/A169T/D57E/D86V/F55L/H45Y/K41T/L162R/M171V/P40S/Q125H/Q178H/Q39Y/Q99D/R42G/S66L/T262R/V114A/V67L/W38E/Y59H/Y61H/Y89S); assay type: binding
DRB1*1302 = DRB1*1302 (Homo sapiens, UniProt P01903+P01911, A100E/A169T/K41T/L162R/M171V/P40S/Q125H/Q178H/Q39Y/Q99D/R42S/S66N/T262R/V115G/W38E/Y61H); assay type: binding
DRB1*1501 = DRB1*1501 (Homo sapiens, UniProt P01903+P01911); assay type: binding
DRB3*0101 = DRB3*0101 (Homo sapiens, UniProt P01903+P79483); assay type: binding
DRB4*0101 = DRB4*0101 (Homo sapiens, UniProt P01903+P13762, G164S); assay type: binding
DRB1*1101 = DRB1*1101 (Homo sapiens, UniProt P01903+P01911, A100R/A169T/A87E/I96F/K41T/L162R/M171V/P40S/Q125H/Q178H/Q39Y/Q99D/R42S/S66Y/T262R/V115G/W38E); conditions: Binding affinity DRB1 *1101
DRB5*0101 = DRB5*0101 (Homo sapiens, UniProt P01903+Q30154); conditions: Binding affinity DRB5 *0101
A*2601 = A*2601 (Homo sapiens, UniProt P04439, A114D/A173T/A270S/D101N/D185E/E277Q/E87N/F33Y/G231S/I121R/I218V/K168Q/L180W/L300P/L318F/P208A/P217A/Q86R/Q94H/R138Q/S129P/T187R/T323A/T345S/V100A/V358M); assay type: binding

Sequence of DRB1*1101 (P01903 26-254 limits assumed, other chains not shown): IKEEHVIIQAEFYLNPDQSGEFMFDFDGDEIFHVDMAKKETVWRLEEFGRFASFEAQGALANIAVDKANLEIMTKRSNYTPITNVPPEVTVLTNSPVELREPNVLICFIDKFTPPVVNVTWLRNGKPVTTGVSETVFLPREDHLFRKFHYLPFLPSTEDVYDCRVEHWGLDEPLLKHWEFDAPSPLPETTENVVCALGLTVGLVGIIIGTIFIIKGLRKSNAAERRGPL
Sequence of DRB1*1302 (P01903 26-254 limits assumed, other chains not shown): as above
Sequence of DRB1*0301 (P01903 26-254 limits assumed, other chains not shown): as above
Sequence of A*3002 (P04439 whole entry, looked up, the tested form may be a part, stated change not applied): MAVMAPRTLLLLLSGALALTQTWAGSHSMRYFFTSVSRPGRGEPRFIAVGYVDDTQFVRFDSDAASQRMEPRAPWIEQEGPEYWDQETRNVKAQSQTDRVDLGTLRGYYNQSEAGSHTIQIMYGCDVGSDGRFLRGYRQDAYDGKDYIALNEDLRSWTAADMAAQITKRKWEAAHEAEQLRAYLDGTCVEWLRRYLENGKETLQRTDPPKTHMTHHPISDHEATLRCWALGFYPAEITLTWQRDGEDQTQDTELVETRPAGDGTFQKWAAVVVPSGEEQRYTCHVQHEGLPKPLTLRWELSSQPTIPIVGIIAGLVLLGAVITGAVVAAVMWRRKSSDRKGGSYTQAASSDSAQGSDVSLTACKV

CSMSYTWTGA [Peptide 1489.14]
IC50 (HLA-A1 (A*0101)): > 20000 nM
IC50 (A*2902): > 20000 nM

WFDITKWLWY [Peptide 9015.0160]
IC50 (A*3002): 3390 nM

ITKIQNFRVY [Peptide 9015.0173]
IC50 (HLA-A1 (A*0101)): 9470 nM
IC50 (A*2902): 1800 nM

NYLVKHHMY [Peptide 9018.0037]
IC50 (HLA-A1 (A*0101)): 305 nM
IC50 (A*2902): 63 nM
IC50 (A*3002): 12 nM

LFDQLIHMHY [Peptide 9018.0033]
IC50 (HLA-A1 (A*0101)): 4070 nM
IC50 (A*2902): 280 nM
IC50 (A*3002): 47 nM

VTFDPIPIHY [Peptide 9015.0153]
IC50 (A*2902): 619 nM
IC50 (A*3002): 380 nM

QTKGLGISY [Peptide 9015.0031]
IC50 (HLA-A1 (A*0101)): > 20000 nM
IC50 (A*2902): > 20000 nM
IC50 (A*3002): 715 nM

GCWRQTSREPRESTV [Peptide 1543.46]
IC50 (DR1 (DRB1*0101)): 2640 nM
IC50 (DR4w4 (DRB1*0401)): 1840 nM
IC50 (DR7 (DRB1*0701)): 72 nM
IC50 (DRB1*0301): 902 nM
IC50 (DRB1*0405): 2300 nM
IC50 (DRB1*0802): 356 nM
IC50 (DRB1*0901): 3200 nM
IC50 (DRB1*1201): > 20000 nM
IC50 (DRB1*1302): > 20000 nM
IC50 (DRB1*1501): > 20000 nM
IC50 (DRB3*0101): > 20000 nM
IC50 (DRB4*0101): > 20000 nM
IC50 (DRB1*1101): 144 nM
IC50 (DRB5*0101): 4270 nM

LADQLIHMHY [Peptide 9015.0186]
IC50 (HLA-A1 (A*0101)): 8.1 nM
IC50 (A*2902): 3070 nM
IC50 (A*3002): 817 nM

NTDKSLVKY [Peptide 9018.0008]
IC50 (HLA-A1 (A*0101)): 7.3 nM
IC50 (A*2902): 5430 nM
IC50 (A*3002): 3010 nM

IVDDSEIAY [Peptide 1580.04]
IC50 (A*2601): > 20000 nM
IC50 (A*3002): 2030 nM

LYCYEQLSDSSDEDE [Peptide 1543.13]
IC50 (DR1 (DRB1*0101)): 5690 nM
IC50 (DR4w4 (DRB1*0401)): 1120 nM
IC50 (DR7 (DRB1*0701)): 9770 nM
IC50 (DRB1*0301): > 20000 nM
IC50 (DRB1*0405): 89 nM
IC50 (DRB1*0802): > 20000 nM
IC50 (DRB1*0901): > 20000 nM
IC50 (DRB1*1201): > 20000 nM
IC50 (DRB1*1302): > 20000 nM
IC50 (DRB1*1501): > 20000 nM
IC50 (DRB3*0101): > 20000 nM
IC50 (DRB4*0101): 12700 nM
IC50 (DRB1*1101): 3380 nM
IC50 (DRB5*0101): > 20000 nM

LSQMVQWAY [Peptide 1580.03]
IC50 (HLA-A1 (A*0101)): 25 nM
IC50 (A*2902): 124 nM
IC50 (A*3002): 1.8 nM

LYDQLIHMHY [Peptide 9018.0034]
IC50 (A*2902): 123 nM
IC50 (A*3002): 55 nM

MSDSQWIKY [Peptide 1593.05]
IC50 (HLA-A1 (A*0101)): 10 nM
IC50 (A*2902): 839 nM
IC50 (A*3002): 434 nM

EDLRTLQQLFLSTLS [Peptide 1543.21]
IC50 (DR1 (DRB1*0101)): 20 nM
IC50 (DR4w4 (DRB1*0401)): 34 nM
IC50 (DR7 (DRB1*0701)): 390 nM
IC50 (DRB1*0301): 6770 nM
IC50 (DRB1*0405): 582 nM
IC50 (DRB1*0802): 12800 nM
IC50 (DRB1*0901): 15500 nM
IC50 (DRB1*1201): 958 nM
IC50 (DRB1*1302): 7.5 nM
IC50 (DRB1*1501): 141 nM
IC50 (DRB3*0101): > 20000 nM
IC50 (DRB4*0101): 17 nM
IC50 (DRB1*1101): 279 nM
IC50 (DRB5*0101): > 20000 nM

WFSITNWLWY [Peptide 9015.0159]
IC50 (A*2902): 30 nM

LTDQLIHMHY [Peptide 9018.0032]
IC50 (HLA-A1 (A*0101)): 6.6 nM
IC50 (A*3002): 350 nM
